Laboratory results: ChEMBL document CHEMBL1154948, “Carbonic anhydrase inhibitors. Inhibition of transmembrane isoforms IX, XII, and XIV with less investigated anions including trithiocarbonate and dithiocarbamate” (Bioorg Med Chem Lett, 2010)

Columns and labels:
[1] = biological target: Carbonic anhydrase 12 (Homo sapiens) (UniProt O43570)
[2] = biological target: Carbonic anhydrase 9 (Homo sapiens) (UniProt Q16790); assay: Inhibition of human recombinant CA9 by stopped flow CO2 hydration assay
[3] = biological target: Carbonic anhydrase 14 (Homo sapiens) (UniProt Q9ULX7)
Carbonic anhydrase 14 (Homo sapiens), sequence (Q9ULX7 whole entry): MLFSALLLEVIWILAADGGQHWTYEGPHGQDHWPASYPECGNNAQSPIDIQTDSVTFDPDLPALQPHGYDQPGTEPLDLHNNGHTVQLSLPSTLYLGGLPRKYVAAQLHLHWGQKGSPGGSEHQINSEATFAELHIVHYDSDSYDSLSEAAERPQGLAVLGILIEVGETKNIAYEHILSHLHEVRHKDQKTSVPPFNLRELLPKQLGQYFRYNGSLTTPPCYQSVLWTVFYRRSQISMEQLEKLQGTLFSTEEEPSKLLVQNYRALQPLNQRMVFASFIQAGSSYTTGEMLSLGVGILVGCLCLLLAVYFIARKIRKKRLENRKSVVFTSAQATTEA
Description: Inhibition of human recombinant CA14 by stopped flow CO2 hydration assay

Carbonic anhydrase 12 (Homo sapiens), sequence (O43570 whole entry): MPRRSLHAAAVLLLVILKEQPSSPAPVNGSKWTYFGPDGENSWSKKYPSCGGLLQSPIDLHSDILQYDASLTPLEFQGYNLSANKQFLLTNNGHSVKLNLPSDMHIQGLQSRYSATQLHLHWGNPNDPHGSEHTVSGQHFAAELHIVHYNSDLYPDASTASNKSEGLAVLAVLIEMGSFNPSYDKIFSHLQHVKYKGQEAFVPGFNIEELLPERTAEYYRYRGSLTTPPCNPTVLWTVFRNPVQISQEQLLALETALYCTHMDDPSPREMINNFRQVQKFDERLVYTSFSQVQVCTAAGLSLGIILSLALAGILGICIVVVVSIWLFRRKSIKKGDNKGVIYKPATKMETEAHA

Molecule: O=[Se](=O)(O)O
- Kinact [1]: 138 mM
- Kinact [2]: 183 mM
- Kinact [3]: 49.6 mM

Molecule: CCN(CC)C(=S)S
- Kinact [1]: 0.0011 mM
- Kinact [2]: 0.0014 mM
- Kinact [3]: 0.001 mM

Molecule: O=P(O)(O)OP(=O)(O)O
- Kinact [1]: 63.9 mM
- Kinact [2]: 46.3 mM
- Kinact [3]: 0.76 mM

Molecule: SODIUM DIOXIDOTRIOXOOSMIUM
- Kinact [1]: 130 mM
- Kinact [2]: 184 mM
- Kinact [3]: 72.5 mM

Molecule: SODIUM STANNATE
- Kinact [1]: 1.02 mM
